We go through 26 molecules from US12421249B2, “Inhibitors of APOL1 and methods of using same” (Vertex Pharmaceuticals Incorporated, priority 2020, dated 2025).

Experiment [1] concerns the target T1, APOL1 (Homo sapiens, UniProt O14791).
T1 sequence (O14791 1-398 S342G/I384M): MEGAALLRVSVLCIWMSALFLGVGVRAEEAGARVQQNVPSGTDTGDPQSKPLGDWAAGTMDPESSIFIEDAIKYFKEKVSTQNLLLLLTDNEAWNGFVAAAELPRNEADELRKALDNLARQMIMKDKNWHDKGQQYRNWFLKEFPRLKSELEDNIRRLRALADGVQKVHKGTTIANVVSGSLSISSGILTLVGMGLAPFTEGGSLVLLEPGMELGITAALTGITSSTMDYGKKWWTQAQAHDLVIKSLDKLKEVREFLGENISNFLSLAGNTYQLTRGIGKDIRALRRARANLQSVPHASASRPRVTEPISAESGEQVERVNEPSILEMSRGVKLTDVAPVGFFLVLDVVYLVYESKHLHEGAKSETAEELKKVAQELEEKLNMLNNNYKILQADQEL
Put plainly: Multi-Tox Assay (MultiTox-Fluor Multiplex Cytotoxicity Assay in tet-inducible APOL1 T-REx-HEK293 cells; Table 46 does not say which APOL1 variant G0/G1/G2). It is filed as cell-based. The settings on record: APOL1 variant not given; for IC50: IP50 = IC50 for cell proliferation.

The target of experiment [2] is T2, APOL1 G1 (Homo sapiens, UniProt O14791, I384M/S342G).
T2 sequence (O14791 28-398 S342G/I384M): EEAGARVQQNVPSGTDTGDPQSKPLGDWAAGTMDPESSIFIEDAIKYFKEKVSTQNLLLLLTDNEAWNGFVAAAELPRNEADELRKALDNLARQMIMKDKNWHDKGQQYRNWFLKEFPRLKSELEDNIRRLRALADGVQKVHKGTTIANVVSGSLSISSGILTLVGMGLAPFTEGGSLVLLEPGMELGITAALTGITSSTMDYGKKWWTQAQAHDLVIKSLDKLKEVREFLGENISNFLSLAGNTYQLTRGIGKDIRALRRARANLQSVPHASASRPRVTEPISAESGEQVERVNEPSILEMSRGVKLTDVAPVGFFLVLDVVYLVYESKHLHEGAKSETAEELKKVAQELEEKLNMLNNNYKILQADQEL
As to the kind of experiment: Trypanosoma brucei brucei Lysis Assay Using APOL1 Recombinant Protein (AlamarBlue viability readout). The format is cell-based. The settings on record: Trypanosome Assay; for IC50: IP50 = IC50 for cell proliferation, read-out: Trypanosome Assay IP50; for Emax: read-out: Trypanosome Assay Max Activity (%). An outline of the steps:
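Percent viability comes from AlamarBlue (resazurin→resorufin) fluorescence interpolated on a standard curve of known parasite numbers, with no-APOL1 wells as 100%. Parasites (Lister 427 bloodstream form, 120,000/well, serum-free assay medium) meet 0.05 μg/mL APOL1 (~EC90). Compounds span a 10-point series, 0.1% DMSO final.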

Regarding `C[C@H]1C[C@@]2(C[C@@H](c3cnn4ccccc34)N1)OCCc1cc(Cl)sc12` (racemic) [Compound 117], in experiment [1], the “Multi-Tox Assay Max Activity (%)” value is on record as 99.0% and the IC50 is below 50 nM. In addition, in experiment [2], the IC50 was below 50 nM and the Emax is 101%.

Consider `C[C@H]1C[C@@]2(C[C@@H](c3ccn(C)n3)N1)OCCc1cc(Cl)sc12` (racemic) [Compound 118], for which, in experiment [1], the “Multi-Tox Assay Max Activity (%)” value was 99.3% and the IC50 is below 50 nM. Further, in experiment [2], the IC50 was in the range of 50 to 500 nM and the Emax was found to be 98%.

Consider `C[C@H]1C[C@@]2(C[C@@H](c3cc(C4CC4)n[nH]3)N1)OCCc1cc(Cl)sc12` (racemic) [Compound 120], for which, in experiment [1], the “Multi-Tox Assay Max Activity (%)” value is reported as 99.0% and the IC50 was below 50 nM. Besides, in experiment [2], the IC50 lay in the range of 50 to 500 nM and the Emax was found to be 91.5%.

Turning to `C[C@H]1C[C@@]2(C[C@@H](c3ccc[nH]c3=O)N1)OCCc1cc(Cl)sc12` (racemic) [Compound 121], in experiment [1], the “Multi-Tox Assay Max Activity (%)” value came to 99.0% and the IC50 was below 50 nM. Besides, in experiment [2], the IC50 is 50 to 500 nM and the Emax was 97.5%.

As for `C[C@H]1C[C@@]2(C[C@@H](c3ccc(C(F)(F)F)nc3)N1)OCCc1cc(Cl)sc12` (racemic) [Compound 123], in experiment [1], the “Multi-Tox Assay Max Activity (%)” value was determined as 100.0% and the IC50 was below 50 nM. Also, in experiment [2], the IC50 was below 50 nM and the Emax was found to be 104%.

As to `C[C@H]1C[C@@]2(C[C@@H](c3cn(C)c(=O)n(C)c3=O)N1)OCCc1cc(Cl)sc12` (racemic) [Compound 124], in experiment [1], the “Multi-Tox Assay Max Activity (%)” value was 99.3% and the IC50 is 50 to 500 nM. Also, in experiment [2], the IC50 lay in the range of 50 to 500 nM and the Emax came to 104%.

Regarding `Cc1cc(O)ncc1[C@@H]1C[C@]2(C[C@H](C)N1)OCCc1cc(Cl)sc12` (racemic) [Compound 125], in experiment [1], the “Multi-Tox Assay Max Activity (%)” value came out at 99.7% and the IC50 is below 50 nM. In experiment [2], the IC50 was in the range of 50 to 500 nM and the Emax worked out at 103%.

As to `Cc1cccc([C@@H]2C[C@]3(C[C@H](C)N2)OCCc2cc(Cl)sc23)n1` (racemic) [Compound 126], in experiment [1], the “Multi-Tox Assay Max Activity (%)” value is on record as 99.4% and the IC50 was 50 to 500 nM. In addition, in experiment [2], the IC50 fell in the range of 50 to 500 nM and the Emax was 115%.

As to `C[C@H]1C[C@@]2(C[C@@H](c3ccnc(N(C)C)n3)N1)OCCc1cc(Cl)sc12` (racemic) [Compound 127], in experiment [1], the “Multi-Tox Assay Max Activity (%)” value was 99.3% and the IC50 lay within 50 to 500 nM. For the same molecule, in experiment [2], the IC50 lay within 50 to 500 nM and the Emax came out at 107%.

Take `CCc1nc([C@@H]2C[C@]3(C[C@H](C)N2)OCCc2cc(Cl)sc23)c[nH]1` (racemic) [Compound 128]: in experiment [1], the “Multi-Tox Assay Max Activity (%)” value is given as 99.3% and the IC50 lay in the range of 50 to 500 nM. Also, in experiment [2], the IC50 is 50 to 500 nM and the Emax is 107%.

In the case of `C[C@H]1C[C@@]2(C[C@@H](c3cnc(N4CCN(C)CC4)nc3)N1)OCCc1cc(Cl)sc12` (racemic) [Compound 129], in experiment [1], the “Multi-Tox Assay Max Activity (%)” value came to 100.0% and the IC50 lay in the range of 50 to 500 nM. Further, in experiment [2], the IC50 was below 50 nM and the Emax is 88%.

As for `C[C@H]1C[C@@]2(C[C@@H](c3c[nH]c(C4CC4)n3)N1)OCCc1cc(Cl)sc12` (racemic) [Compound 130], in experiment [1], the “Multi-Tox Assay Max Activity (%)” value is reported as 99.0% and the IC50 is 50 to 500 nM. In addition, in experiment [2], the IC50 is 50 to 500 nM and the Emax is 102%.

For `C[C@H]1C[C@@]2(C[C@@H](c3cc4n(n3)CCCO4)N1)OCCc1cc(Cl)sc12` (racemic) [Compound 131], in experiment [1], the “Multi-Tox Assay Max Activity (%)” value is 99.3% and the IC50 was in the range of 50 to 500 nM. In experiment [2], the IC50 is 50 to 500 nM and the Emax amounted to 111%.

Regarding `Cc1nocc1[C@@H]1C[C@]2(C[C@H](C)N1)OCCc1cc(Cl)sc12` (racemic) [Compound 132], in experiment [1], the “Multi-Tox Assay Max Activity (%)” value came out at 99.3% and the IC50 was 50 to 500 nM. In experiment [2], the IC50 was 50 to 500 nM and the Emax worked out at 91.5%.

As to `C[C@H]1C[C@@]2(C[C@@H](c3cn(CC(N)=O)nn3)N1)OCCc1cc(Cl)sc12` (racemic) [Compound 133], in experiment [1], the “Multi-Tox Assay Max Activity (%)” value worked out at 99.7% and the IC50 fell in the range of 50 to 500 nM. For the same molecule, in experiment [2], the IC50 was in the range of 50 to 500 nM and the Emax is 111%.

Consider `Cc1cnc([C@@H]2C[C@]3(C[C@H](C)N2)OCCc2cc(Cl)sc23)o1` (racemic) [Compound 134], for which, in experiment [1], the “Multi-Tox Assay Max Activity (%)” value stood at 99.2% and the IC50 lay within 50 to 500 nM. For the same molecule, in experiment [2], the IC50 was 50 to 500 nM and the Emax came to 96.7%.

On to `Cc1c([C@@H]2C[C@]3(C[C@H](C)N2)OCCc2cc(Cl)sc23)cnn1C` (racemic) [Compound 136], for which the IC50 in experiment [1] and in experiment [2] was 50 to 500 nM throughout. Also, in experiment [2], the Emax stood at 100%.

Regarding `COc1cc(O)cc([C@@H]2C[C@]3(C[C@H](C)N2)OCCc2cc(Cl)sc23)c1` (racemic) [Compound 137], in experiment [1], the “Multi-Tox Assay Max Activity (%)” value is recorded as 98.7% and the IC50 lay within 50 to 500 nM. For the same molecule, in experiment [2], the IC50 is 50 to 500 nM and the Emax was found to be 84.5%.

Take `Cc1cc([C@@H]2C[C@]3(C[C@H](C)N2)OCCc2cc(Cl)sc23)nc(N(C)C)n1` (racemic) [Compound 138]: in experiment [1], the “Multi-Tox Assay Max Activity (%)” value amounted to 98.0% and the IC50 fell in the range of 50 to 500 nM. For the same molecule, in experiment [2], the IC50 lay in the range of 50 to 500 nM and the Emax came to 104%.

`Cc1ccnc([C@@H]2C[C@]3(C[C@H](C)N2)OCCc2cc(Cl)sc23)c1` (racemic) [Compound 139]: in experiment [1], the “Multi-Tox Assay Max Activity (%)” value is on record as 98.0% and the IC50 is 50 to 500 nM. In addition, in experiment [2], the IC50 was above 500 nM and the Emax was 98.3%.

Regarding `C[C@H]1C[C@@]2(C[C@@H](c3cnc(C4CCOCC4)o3)N1)OCCc1cc(Cl)sc12` (racemic) [Compound 140], in experiment [1], the “Multi-Tox Assay Max Activity (%)” value is 99.7% and the IC50 was in the range of 50 to 500 nM. In experiment [2], the IC50 fell in the range of 50 to 500 nM and the Emax was 102%.

`C[C@H]1C[C@@]2(C[C@@H](c3cccc4[nH]c(=O)oc34)N1)OCCc1cc(Cl)sc12` (racemic) [Compound 141] displayed an IC50 in experiment [1] of 50 to 500 nM. In addition, in experiment [2], the IC50 lay within 50 to 500 nM and the Emax is 90%.

For `Cc1nn(C)cc1[C@@H]1C[C@]2(C[C@H](C)N1)OCCc1cc(Cl)sc12` (racemic) [Compound 142], in experiment [1], the “Multi-Tox Assay Max Activity (%)” value is 99.0% and the IC50 was in the range of 50 to 500 nM. Also, in experiment [2], the IC50 fell in the range of 50 to 500 nM and the Emax worked out at 83.7%.

Regarding `Cc1nc([C@@H]2C[C@]3(C[C@H](C)N2)OCCc2cc(Cl)sc23)oc1C` (racemic) [Compound 144], in experiment [1], the “Multi-Tox Assay Max Activity (%)” value amounted to 98.0% and the IC50 was in the range of 50 to 500 nM. For the same molecule, in experiment [2], the IC50 lay in the range of 50 to 500 nM and the Emax was found to be 102%.

`COc1ccnc([C@@H]2C[C@]3(C[C@H](C)N2)OCCc2cc(Cl)sc23)n1` (racemic) [Compound 145]: the IC50 in experiment [1] and in experiment [2] was 50 to 500 nM each time. Further, the Emax in experiment [2] came out at 88%.

In turn, `C[C@H]1C[C@@]2(C[C@@H](c3cccc(S(C)(=O)=O)c3)N1)OCCc1cc(Cl)sc12` (racemic) [Compound 146] showed an IC50 in experiment [1] of 50 to 500 nM. Moreover, in experiment [2], the IC50 was in the range of 50 to 500 nM and the Emax was found to be 88%.
